Measurements as given in ChEMBL document CHEMBL6134915, “Novel Sulfonamide Derivatives as Nav1.5 Sodium Channel Blockers for Treating Atrial Fibrillation” (ACS Med Chem Lett, 2025).
pIC50: −log10 of the molar value.

Tests used:
Type in all cases: cell-based
[1] = biological target: T1, Sodium channel protein type 5 subunit alpha (Homo sapiens, UniProt Q14524); experiment: Inhibition of human Nav1.5 expressed in CHO-K1 cells preincubated for 3 mins followed by incubation under atrial fibrillation-mimicking condition at 5 Hz with -85 mV holding potential for 12 sec by automated Qpatch electrophysiological recording
T1 sequence (Q14524 whole entry): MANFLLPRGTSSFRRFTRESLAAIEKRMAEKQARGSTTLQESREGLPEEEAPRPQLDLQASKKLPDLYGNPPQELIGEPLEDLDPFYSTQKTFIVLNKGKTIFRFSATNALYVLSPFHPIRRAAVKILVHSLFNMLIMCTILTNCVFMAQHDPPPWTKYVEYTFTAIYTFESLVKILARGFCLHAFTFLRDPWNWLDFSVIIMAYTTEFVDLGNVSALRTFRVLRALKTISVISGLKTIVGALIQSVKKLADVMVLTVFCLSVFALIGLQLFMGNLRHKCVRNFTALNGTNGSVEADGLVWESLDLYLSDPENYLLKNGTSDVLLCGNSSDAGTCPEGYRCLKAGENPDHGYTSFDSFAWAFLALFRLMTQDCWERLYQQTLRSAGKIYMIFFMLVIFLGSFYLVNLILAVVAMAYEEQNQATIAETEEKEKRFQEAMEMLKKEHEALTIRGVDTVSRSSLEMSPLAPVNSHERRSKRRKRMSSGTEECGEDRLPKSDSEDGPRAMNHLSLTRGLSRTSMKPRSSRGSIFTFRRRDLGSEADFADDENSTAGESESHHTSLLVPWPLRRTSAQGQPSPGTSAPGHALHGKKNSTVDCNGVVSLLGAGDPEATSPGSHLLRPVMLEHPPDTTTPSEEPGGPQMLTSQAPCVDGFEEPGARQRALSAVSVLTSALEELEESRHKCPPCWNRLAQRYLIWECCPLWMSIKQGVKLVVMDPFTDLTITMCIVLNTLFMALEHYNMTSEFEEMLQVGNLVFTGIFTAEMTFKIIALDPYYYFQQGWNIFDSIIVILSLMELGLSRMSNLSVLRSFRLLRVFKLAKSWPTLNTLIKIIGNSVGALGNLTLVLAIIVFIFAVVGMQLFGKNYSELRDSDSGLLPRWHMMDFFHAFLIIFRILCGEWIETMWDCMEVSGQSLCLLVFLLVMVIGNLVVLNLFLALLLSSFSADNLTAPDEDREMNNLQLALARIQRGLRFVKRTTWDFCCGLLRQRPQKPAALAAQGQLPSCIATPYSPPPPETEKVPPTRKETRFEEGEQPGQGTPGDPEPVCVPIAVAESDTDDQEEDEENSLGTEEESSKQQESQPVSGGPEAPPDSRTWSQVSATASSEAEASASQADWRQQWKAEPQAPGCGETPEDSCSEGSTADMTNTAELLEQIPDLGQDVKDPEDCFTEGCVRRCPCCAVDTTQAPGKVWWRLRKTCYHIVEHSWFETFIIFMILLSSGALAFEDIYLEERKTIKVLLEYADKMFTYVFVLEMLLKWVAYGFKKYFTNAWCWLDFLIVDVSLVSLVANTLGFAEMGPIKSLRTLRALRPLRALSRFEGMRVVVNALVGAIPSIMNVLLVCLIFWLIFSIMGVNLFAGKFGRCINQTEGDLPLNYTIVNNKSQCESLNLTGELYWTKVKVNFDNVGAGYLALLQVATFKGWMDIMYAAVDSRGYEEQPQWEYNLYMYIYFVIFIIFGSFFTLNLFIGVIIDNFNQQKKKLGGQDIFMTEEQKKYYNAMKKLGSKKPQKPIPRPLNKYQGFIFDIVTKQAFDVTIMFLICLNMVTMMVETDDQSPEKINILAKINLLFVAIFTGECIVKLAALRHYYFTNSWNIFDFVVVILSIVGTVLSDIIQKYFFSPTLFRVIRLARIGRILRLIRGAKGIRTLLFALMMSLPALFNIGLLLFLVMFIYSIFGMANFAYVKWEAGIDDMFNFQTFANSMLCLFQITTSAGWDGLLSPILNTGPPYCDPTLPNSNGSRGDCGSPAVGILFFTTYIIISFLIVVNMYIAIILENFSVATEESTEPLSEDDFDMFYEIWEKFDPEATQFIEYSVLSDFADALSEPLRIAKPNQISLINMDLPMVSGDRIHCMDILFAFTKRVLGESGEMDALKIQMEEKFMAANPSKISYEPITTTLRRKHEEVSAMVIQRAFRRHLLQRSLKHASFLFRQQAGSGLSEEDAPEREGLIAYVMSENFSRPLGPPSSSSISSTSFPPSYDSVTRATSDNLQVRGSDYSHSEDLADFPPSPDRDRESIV

[2] = biological target: T1, Sodium channel protein type 5 subunit alpha; experiment: Inhibition of human Nav1.5 expressed in CHO-K1 cells preincubated with compound for 3 mins in presence of ATXII followed by incubation under ventricular condition at sinus rate at 1 Hz with -100 mV holding potential for 25 sec by automated Qpatch electrophysiological recording
[3] = biological target: T1, Sodium channel protein type 5 subunit alpha; experiment: Inhibition of human Nav1.5 expressed in CHO-K1 cells preincubated for 3 mins followed by incubation under ventricular condition at sinus rate at 1 Hz with -100 mV holding potential for 25 sec by automated Qpatch electrophysiological recording

Row | SMILES | pIC50 [1] | pIC50 [2] | pIC50 [3]
1 | C[C@@](O)(CS(N)(=O)=O)c1cccc(-c2nnn(Cc3cc(OC(F)(F)F)ccc3F)n2)n1 | 6.00 |  | 
2 | C[C@](O)(CS(N)(=O)=O)c1cccc(-c2nnn(Cc3cc(OC(F)(F)F)ccc3F)n2)n1 | 6.10 |  | 
3 | C[C@@](O)(CS(N)(=O)=O)c1ccc(F)c(-c2nnn(Cc3cc(OC(F)(F)F)ccc3F)n2)c1 | 6.00 | 4.96 | < 4.52
4 | C[C@@](O)(CS(N)(=O)=O)c1ccc(Cl)c(-c2nnn(Cc3cc(OC(F)(F)F)ccc3F)n2)c1 | 5.89 | 4.55 | < 4.52
5 | C[C@](O)(CS(N)(=O)=O)c1ccc(Cl)c(-c2nnn(Cc3cc(OC(F)(F)F)ccc3F)n2)c1 | 5.89 | 4.82 | 4.55
